# Data: ChEMBL document CHEMBL4376828, “Small-Molecule Inhibitors of Necroptosis: Current Status and Perspectives” (J Med Chem, 2020)
# Experiments:
# [1] = molecular target: T1, Receptor-interacting serine/threonine-protein kinase 3 (Homo sapiens, UniProt Q9Y572); test: Inhibition of human full length N-terminal GST-tagged RIPK3 expressed in baculovirus infected sf9 insect cells assessed as reduction in MBP phosphorylation using MBP as substrate by kinase-Glo luminescence assay
# [2] = molecular target: T1, Receptor-interacting serine/threonine-protein kinase 3; test: Inhibition of human RIPK3 using MBP as substrate by [gamma33-ATP] based radiometric assay
# [3] = molecular target: T2, Receptor-interacting serine/threonine-protein kinase 2 (Homo sapiens, UniProt O43353); test: Inhibition of human RIPK2 using MBP as substrate by [gamma33-ATP] based radiometric assay
# [4] = molecular target: T3, Dual serine/threonine and tyrosine protein kinase (Homo sapiens, UniProt Q6XUX3); test: Inhibition of human RIPK5 using MBP as substrate by [gamma33-ATP] based radiometric assay
# T3 sequence (Q6XUX3 whole entry): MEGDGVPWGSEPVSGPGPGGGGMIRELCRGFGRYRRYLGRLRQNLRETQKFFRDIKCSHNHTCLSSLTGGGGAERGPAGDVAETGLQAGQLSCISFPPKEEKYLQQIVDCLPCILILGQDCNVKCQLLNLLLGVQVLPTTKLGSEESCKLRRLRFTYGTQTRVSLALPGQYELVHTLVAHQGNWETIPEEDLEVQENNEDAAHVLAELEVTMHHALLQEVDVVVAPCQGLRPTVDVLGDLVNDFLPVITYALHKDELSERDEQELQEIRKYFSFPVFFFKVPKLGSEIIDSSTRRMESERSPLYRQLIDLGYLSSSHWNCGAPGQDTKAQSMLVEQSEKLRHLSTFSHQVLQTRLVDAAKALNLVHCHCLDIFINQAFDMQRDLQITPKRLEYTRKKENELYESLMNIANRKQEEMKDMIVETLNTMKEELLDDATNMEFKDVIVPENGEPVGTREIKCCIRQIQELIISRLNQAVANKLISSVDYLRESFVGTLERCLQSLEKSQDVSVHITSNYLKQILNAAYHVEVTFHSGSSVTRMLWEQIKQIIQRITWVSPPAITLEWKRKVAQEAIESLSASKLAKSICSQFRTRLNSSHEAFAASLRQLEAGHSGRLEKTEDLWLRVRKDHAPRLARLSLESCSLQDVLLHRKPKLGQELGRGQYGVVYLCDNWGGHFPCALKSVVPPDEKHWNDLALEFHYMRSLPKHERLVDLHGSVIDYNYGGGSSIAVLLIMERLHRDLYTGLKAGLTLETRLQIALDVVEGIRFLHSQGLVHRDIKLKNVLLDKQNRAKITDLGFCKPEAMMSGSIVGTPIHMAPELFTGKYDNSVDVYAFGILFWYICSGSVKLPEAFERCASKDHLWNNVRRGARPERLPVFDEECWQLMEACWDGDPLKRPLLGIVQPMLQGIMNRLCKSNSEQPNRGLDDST
# [5] = molecular target: T4, Receptor-interacting serine/threonine-protein kinase 1 (Homo sapiens, UniProt Q13546); test: Inhibition of human RIPK1 using MBP as substrate by [gamma33-ATP] based radiometric assay
# T4 sequence (Q13546 whole entry): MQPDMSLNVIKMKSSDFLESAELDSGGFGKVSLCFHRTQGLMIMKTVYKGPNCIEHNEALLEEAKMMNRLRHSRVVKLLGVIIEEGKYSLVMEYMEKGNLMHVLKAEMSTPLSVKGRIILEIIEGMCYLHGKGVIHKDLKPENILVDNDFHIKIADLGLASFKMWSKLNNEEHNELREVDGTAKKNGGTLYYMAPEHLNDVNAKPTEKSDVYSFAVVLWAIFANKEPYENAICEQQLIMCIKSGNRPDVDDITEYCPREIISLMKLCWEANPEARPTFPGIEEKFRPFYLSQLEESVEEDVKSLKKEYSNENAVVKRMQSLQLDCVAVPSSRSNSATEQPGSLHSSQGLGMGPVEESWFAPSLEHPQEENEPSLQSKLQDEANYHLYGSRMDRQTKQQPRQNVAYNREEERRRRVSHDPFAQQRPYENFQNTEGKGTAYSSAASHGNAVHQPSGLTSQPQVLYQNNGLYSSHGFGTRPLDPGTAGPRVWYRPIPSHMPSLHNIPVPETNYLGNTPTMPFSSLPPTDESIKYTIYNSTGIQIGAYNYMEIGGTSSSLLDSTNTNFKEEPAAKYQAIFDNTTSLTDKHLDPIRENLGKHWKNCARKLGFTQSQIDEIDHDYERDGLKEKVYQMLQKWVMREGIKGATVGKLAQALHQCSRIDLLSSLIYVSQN
# [6] = molecular target: T4, Receptor-interacting serine/threonine-protein kinase 1; test: Inhibition of recombinant human GST-tagged RIPK1 (1 to 479 residues) incubated for 4 hrs by ADP-Glo assay
# [7] = test system: L929; test: Anti-neprotic activity in mouse L929 cells assessed as reduction in TNF-induced necroptosis and measured every 1 hr by SYTOX Green dye based fluorescence assay; format: functional, cell-based; settings: L929, 1 h
# [8] = test system: MEF; test: Anti-neprotic activity in mouse MEF cells assessed as reduction in TNF-induced necroptosis and measured every 1 hr in presence of z-VAD by SYTOX Green dye based fluorescence assay; format: functional, cell-based
# [9] = test system: Mus musculus; test: Antiinflammatory Activity in C57BL/6 mouse TNFalpha-induced mouse model of SIRS assessed as reduction in TNF-induced body temperature at 0.124 mg/kg, iv pretreated for 15 mins followed by TNFalpha-stimulation and measured up to 4 days by thermometric method relative to control; format: functional; set-up: scale not given: the % may be the effect or the level left
# [10] = molecular target: T4, Receptor-interacting serine/threonine-protein kinase 1; test: Inhibition of GSK657 binding to human RIPK1 (1 to 328) by fluorescence Polarization assay
# [11] = molecular target: T4, Receptor-interacting serine/threonine-protein kinase 1; test: Inhibition of human RIPK1 by ADP-Glo assay
# [12] = molecular target: T5, Indoleamine 2,3-dioxygenase 1 (Homo sapiens, UniProt P14902); test: Inhibition of recombinant human IDO using L-Trp as substrate incubated for 60 mins
# [13] = test system: HT-29; test: Anti-neprotic activity in human HT-29 cells assessed as reduction in TSZ-induced necroptosis incubated for 24 hrs by cell titer glo-based luminescence assay; format: functional; settings: HT-29, 24 h
# [14] = molecular target: T1, Receptor-interacting serine/threonine-protein kinase 3; test: Inhibition of recombinant RIPK3 (unknown origin) using MBP as substrate preincubated for 15 mins followed by addition of MBP and measured after 120 min ADP-Glo kinase assay
# [15] = test system: Mus musculus; test: Antiinflammatory Activity in C57BL/6 mouse TNFalpha-induced mouse model of SIRS at 30 mg/kg, ip pretreated for 15 mins followed by TNFalpha-stimulation and measured after 72 hrs relative to control; format: functional
# [16] = molecular target: T2, Receptor-interacting serine/threonine-protein kinase 2; test: Inhibition of recombinant human His-tagged RIPK2 (8 to 317 residues) incubated for 1 hr by ADP-Glo assay
# [17] = molecular target: Tyrosine-protein kinase ABL1 (Homo sapiens, UniProt P00519); test: Inhibition of Abl (unknown origin) incubated for 1 hr by ADP-Glo assay
# [18] = molecular target: T4, Receptor-interacting serine/threonine-protein kinase 1; test: Inhibition of RIPK1 (unknown origin)
# [19] = test system: Fibroblast; test: Anti-neprotic activity in mouse fibroblasts cells; format: functional, cell-based
# [20] = molecular target: T5, Indoleamine 2,3-dioxygenase 1; test: Inhibition of IDO (unknown origin)
# [21] = molecular target: T6, Receptor-interacting serine/threonine-protein kinase 1 (Mus musculus, UniProt Q60855); test: Inhibition of mouse RIPK1; settings: read-out: Ki(app)
# T6 sequence (Q60855 whole entry): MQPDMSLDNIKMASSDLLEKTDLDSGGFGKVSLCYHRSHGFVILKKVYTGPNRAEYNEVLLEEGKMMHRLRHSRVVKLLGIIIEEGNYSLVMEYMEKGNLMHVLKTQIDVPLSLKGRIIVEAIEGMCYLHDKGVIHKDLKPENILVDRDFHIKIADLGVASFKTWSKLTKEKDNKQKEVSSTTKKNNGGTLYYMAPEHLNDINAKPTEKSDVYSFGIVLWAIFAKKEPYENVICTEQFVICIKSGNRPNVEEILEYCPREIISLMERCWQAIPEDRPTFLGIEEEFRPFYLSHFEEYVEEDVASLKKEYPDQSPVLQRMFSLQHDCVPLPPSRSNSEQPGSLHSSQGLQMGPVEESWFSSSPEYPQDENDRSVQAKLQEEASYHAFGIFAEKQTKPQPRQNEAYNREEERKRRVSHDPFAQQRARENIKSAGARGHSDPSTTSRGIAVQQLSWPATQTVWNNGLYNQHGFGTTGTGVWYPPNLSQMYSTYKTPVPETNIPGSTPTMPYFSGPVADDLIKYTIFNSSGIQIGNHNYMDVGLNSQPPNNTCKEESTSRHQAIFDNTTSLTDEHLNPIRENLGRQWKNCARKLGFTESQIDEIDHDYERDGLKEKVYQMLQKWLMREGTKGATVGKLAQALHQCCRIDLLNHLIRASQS
# [22] = test system: Mus musculus; test: Antiinflammatory activity in TNF-induced mouse model of SIRS assessed as reduction in TNF-induced body temperature at 5 mg/kg, po and measured after 2 to 4 hrs by infrared ear Thermometric method relative to control; format: functional; set-up: scale not given: the % may be the effect or the level left
# [23] = test system: Mus musculus; test: Antiinflammatory Activity in C57BL/6 mouse TNFalpha-induced mouse model of SIRS assessed as reduction in TNF-induced body temperature at 0.226 mg/kg, iv pretreated for 15 mins followed by TNFalpha-stimulation and measured up to 4 days by thermometric method relative to control; format: functional; set-up: scale not given: the % may be the effect or the level left
# [24] = test system: Jurkat; test: Anti-neprotic activity in human Jurkat cells FADD defient assessed as reduction in TNFalpha-induced necroptosis preincubated for 30 mins followed by addition of TNFalpha-stimulation and further incubated for over night by Cell Titer Glo assay; format: functional, cell-based
# [25] = molecular target: T7, Mixed lineage kinase domain-like protein (Homo sapiens) (UniProt Q8NB16)
# T7 sequence (whole entry): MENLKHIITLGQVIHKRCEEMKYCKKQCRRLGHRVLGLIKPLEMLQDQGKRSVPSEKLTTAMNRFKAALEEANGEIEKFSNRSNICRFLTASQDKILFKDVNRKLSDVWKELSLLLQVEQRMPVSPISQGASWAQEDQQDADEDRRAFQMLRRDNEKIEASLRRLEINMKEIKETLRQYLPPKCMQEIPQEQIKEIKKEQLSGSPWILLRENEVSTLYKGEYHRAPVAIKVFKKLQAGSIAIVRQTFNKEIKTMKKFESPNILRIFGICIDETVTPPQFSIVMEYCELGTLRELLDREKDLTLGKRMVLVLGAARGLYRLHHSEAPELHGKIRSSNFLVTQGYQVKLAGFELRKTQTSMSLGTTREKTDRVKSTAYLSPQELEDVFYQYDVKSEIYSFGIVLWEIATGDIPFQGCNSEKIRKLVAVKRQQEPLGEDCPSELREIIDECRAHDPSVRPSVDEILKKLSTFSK
# [26] = molecular target: T8, Receptor-interacting serine/threonine-protein kinase 1 (Homo sapiens) (UniProt Q13546)
# T8 sequence (whole entry): T4 sequence (Q13546 whole entry)
# T1 sequence (Q9Y572 whole entry): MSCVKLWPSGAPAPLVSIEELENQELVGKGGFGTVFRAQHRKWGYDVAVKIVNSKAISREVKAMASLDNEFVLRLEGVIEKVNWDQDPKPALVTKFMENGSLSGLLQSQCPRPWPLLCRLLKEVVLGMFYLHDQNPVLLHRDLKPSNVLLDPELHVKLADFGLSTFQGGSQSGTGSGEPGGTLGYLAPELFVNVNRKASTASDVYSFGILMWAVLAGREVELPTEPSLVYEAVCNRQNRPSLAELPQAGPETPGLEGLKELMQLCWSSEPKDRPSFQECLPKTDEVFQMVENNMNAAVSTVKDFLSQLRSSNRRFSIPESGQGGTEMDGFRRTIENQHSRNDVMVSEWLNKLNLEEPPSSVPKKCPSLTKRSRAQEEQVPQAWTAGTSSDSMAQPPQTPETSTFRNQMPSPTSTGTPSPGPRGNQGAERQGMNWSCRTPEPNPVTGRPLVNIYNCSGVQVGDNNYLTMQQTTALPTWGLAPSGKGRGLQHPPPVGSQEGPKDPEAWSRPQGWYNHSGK
# T5 sequence (P14902 whole entry): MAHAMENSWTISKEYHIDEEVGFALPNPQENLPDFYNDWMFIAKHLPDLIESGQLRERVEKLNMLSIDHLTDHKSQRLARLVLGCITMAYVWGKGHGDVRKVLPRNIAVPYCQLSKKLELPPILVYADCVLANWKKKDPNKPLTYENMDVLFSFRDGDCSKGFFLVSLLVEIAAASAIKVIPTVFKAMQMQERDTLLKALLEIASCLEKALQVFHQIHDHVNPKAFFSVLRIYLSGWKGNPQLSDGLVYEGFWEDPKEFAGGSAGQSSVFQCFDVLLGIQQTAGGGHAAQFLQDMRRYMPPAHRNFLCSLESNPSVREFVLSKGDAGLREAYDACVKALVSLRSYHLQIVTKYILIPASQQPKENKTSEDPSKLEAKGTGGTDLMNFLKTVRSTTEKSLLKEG
# T2 sequence (O43353 whole entry): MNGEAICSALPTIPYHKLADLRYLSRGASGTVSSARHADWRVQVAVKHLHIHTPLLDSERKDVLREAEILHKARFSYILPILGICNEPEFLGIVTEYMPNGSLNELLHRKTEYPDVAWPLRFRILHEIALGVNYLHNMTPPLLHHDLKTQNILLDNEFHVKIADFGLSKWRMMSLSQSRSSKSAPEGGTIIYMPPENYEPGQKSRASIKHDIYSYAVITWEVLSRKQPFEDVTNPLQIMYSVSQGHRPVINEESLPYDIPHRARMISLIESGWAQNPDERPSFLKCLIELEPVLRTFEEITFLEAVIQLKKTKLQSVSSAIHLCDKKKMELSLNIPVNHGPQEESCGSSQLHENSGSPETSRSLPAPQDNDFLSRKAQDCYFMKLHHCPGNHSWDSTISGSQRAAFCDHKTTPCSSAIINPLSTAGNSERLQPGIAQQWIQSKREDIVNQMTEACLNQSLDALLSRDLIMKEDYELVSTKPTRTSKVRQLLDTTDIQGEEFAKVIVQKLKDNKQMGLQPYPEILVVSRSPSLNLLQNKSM
# Chain of Tyrosine-protein kinase ABL1 (P00519 whole entry): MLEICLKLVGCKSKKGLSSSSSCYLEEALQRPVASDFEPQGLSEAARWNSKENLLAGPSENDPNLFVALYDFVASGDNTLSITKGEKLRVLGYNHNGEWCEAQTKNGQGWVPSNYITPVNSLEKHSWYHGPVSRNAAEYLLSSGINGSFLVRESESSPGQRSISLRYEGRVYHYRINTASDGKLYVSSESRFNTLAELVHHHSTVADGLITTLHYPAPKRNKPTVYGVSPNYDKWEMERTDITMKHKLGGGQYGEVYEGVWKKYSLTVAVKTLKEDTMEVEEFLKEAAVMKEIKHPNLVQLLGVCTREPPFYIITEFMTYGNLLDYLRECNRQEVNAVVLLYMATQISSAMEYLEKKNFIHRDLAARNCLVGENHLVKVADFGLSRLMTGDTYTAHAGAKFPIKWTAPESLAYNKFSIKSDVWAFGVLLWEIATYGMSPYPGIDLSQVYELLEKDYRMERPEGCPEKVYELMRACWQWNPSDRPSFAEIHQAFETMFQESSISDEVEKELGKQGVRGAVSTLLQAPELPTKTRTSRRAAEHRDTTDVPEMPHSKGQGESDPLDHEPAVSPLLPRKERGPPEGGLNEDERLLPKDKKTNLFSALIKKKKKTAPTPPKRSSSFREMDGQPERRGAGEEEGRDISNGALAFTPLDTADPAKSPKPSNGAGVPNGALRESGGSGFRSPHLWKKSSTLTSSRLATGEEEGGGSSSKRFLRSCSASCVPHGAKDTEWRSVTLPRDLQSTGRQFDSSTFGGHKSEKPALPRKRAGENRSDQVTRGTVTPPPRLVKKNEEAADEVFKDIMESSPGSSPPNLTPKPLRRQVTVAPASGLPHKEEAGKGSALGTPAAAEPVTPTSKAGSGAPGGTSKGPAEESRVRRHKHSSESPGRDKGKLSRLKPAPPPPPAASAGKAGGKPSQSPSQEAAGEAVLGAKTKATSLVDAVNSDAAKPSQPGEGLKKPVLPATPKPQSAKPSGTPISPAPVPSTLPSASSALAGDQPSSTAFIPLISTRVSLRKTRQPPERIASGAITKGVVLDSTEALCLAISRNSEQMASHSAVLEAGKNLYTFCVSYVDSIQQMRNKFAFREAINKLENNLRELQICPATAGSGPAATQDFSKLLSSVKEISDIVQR
compound,measurement,setting,value
CC(C)(C)c1nc(-c2cccc(NS(=O)(=O)c3c(F)cccc3F)c2F)c(-c2ccnc(N)n2)s1 [DABRAFENIB],IC50,[1],250 nM
same,IC50,[2],2 nM
same,IC50,[3],77 nM
same,IC50,[4],29400 nM
same,IC50,[5],53200 nM
Cn1cc(-c2ccc3c(c2F)CCN3C(=O)Cc2cccc(C(F)(F)F)n2)c2c(N)ncnc21,IC50,[6],69 nM
same,IC50,[7],0.1 nM
same,IC50,[8],4 nM
same,Activity,[9],100%
CNC(=O)c1ccc2c(c1)ncn2-c1ccc(CC(=O)OC(C)(C)C)cc1,IC50,[10],0.9 nM
same,IC50,[11],0.3 nM
Cc1cc(-c2cnc(N)c3c(-c4ccc5scnc5c4)csc23)n(C)n1,IC50,[10],8.6 nM
same,IC50,[11],6.5 nM
O=C1NC(=S)NC1Cc1c[nH]c2ccccc12 (centres undefined),IC50,[12],110 nM
Cn1c(=O)c2c(nc(S(C)(=O)=O)n2C)n(CC#Cc2cccc(O)c2)c1=O,IC50,[13],2 nM
Cn1c(=O)c2c(nc(S(C)(=O)=O)n2C)n(C)c1=O,IC50,[13],390 nM
CC(=O)Nc1nc2ccc(-c3cnc(Cl)c(CC(=O)Cc4ccccc4)c3)cc2s1,IC50,[14],> 1000 nM
same,Activity,[15],90%
Cc1ccc(CCCCN2C(=O)N[C@H](Cc3c[nH]c4c(Cl)cccc34)C2=O)cc1C#Cc1cnc2cccnn12,IC50,[16],1190 nM
same,IC50,[17],> 1000 nM
Cc1ccc(O)cc1Nc1ccnc2cc(-c3ccccn3)ccc12,IC50,[18],73.6 nM
CN(c1ccc(NC(=O)Nc2ccc(OC(F)(F)F)cc2)cc1)c1ccnc(Nc2cccc(S(N)(=O)=O)c2)n1 [GW806742X],IC50,[19],< 50 nM
CN1C(=O)C(Cc2c[nH]c3ccccc23)NC1=S (centres undefined) [NECROSTATIN],IC50,[20],100000 nM
same,IC50,[12],110 nM
COc1nccnc1NS(=O)(=O)c1ccc(NC(=O)/C=C/c2ccc([N+](=O)[O-])s2)cc1,IC50,[13],< 200 nM
COc1ccc2c(c1)CC[C@H](NC(=O)c1nc3n(n1)[C@H](c1ccccc1)CC3)C(=O)N2C,Ki,[21],189 nM
same,Activity,[22],100%
Cn1cc(-c2ccc3c(c2)CCN3C(=O)Cc2cccc(C(F)(F)F)c2)c2c(N)ncnc21,IC50,[7],0.4 nM
same,Activity,[23],100%
C[C@@H](Oc1cc(-c2cnn(C3CCNCC3)c2)cnc1N)c1c(Cl)ccc(F)c1Cl [CRIZOTINIB],IC50,[24],> 40000 nM
same,ΔTm,[25],5.63 °C
same,ΔTm,[26],0.75 °C
Nc1nccnc1C(=O)O[C@@H](C(=O)Nc1ccc(F)cc1)c1ccccc1,IC50,[24],> 40000 nM
same,ΔTm,[26],-0.15 °C
